Source: article PMC5430962, “Retro-inverso Urokinase Receptor Antagonists for the Treatment of Metastatic Sarcomas” (Scientific Reports, 2017)
[ ]: non-standard residue; d: D form. Aib = CC(C)(N)C(=O)O

Assays:
FPR1 = molecular target: T1, FPR1 (Homo sapiens, UniProt P21462); test: Agonist-dependent FPR1 internalization, fluorescence microscopy in RBL-2H3/ETFR cells; assay type: cell-based; settings: 100 nM peptide 30 min at 37 °C, then 10 nM FITC-fMLF 30 min at 37 °C; confocal microscopy
T1 construct: expressed in transfected cells; host or cells: rat basophilic leukaemia RBL-2H3/ETFR cells (gift of F. Blasi)
T1 sequence (P21462 1-350): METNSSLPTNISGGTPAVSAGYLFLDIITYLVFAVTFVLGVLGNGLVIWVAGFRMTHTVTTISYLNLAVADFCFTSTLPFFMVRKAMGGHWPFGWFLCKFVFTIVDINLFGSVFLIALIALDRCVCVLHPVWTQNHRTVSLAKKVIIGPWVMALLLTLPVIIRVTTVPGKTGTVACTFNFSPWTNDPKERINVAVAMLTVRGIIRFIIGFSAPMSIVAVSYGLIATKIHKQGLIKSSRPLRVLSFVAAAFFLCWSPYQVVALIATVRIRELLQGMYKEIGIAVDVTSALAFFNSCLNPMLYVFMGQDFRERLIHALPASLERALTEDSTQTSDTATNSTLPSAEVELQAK
Experimental: Cells grown on glass slides to semi-confluence were exposed to diluents or the indicated unlabeled peptides for 30 min at 37 °C, then to 10 nM FITC-fMLF in PBS for additional 30 min at 37 °C and extensively rinsed with PBS. To visualize the cytoskeleton, the cells were fixed with 2.5% formaldehyde, permeabilized with 0.1% Triton X-100 for 10 min at 4 °C, and incubated with 0.1 µg/mL rhodamine-conjugated phalloidin (Sigma-Aldrich) for 40 min. In all cases, coverslips were mounted using 20% (w/v) Mowiol, visualized with a Zeiss 510META-LSM microscope (Carl Zeiss), and z-series were collected at 0.20 µm intervals.

[1] = tested on: osteosarcoma Saos-2 cells; test: Matrigel invasion kinetics, xCELLigence RTCA, Saos-2; assay type: cell-based, human; settings: Saos-2, 10 nM, 10% FBS, 20 hr
Experimental: This assay was performed using E-well plates and the xCELLigence RTCA technology as described. Bottom wells were coated with 20 µg/well matrigel diluted in serum free medium. Matrigel was allowed to polymerize for 1 hr at 37 °C prior to seeding cells (1 × 10^4 cells/well) suspended in growth medium plus/minus RI peptides. Cells that cross matrigel adhere to the bottom of plates causing impedance changes that are proportional to the number of invading cells, and are expressed as a cell index value. Matrigel invasion was monitored for 20 hr. The experiments were performed three times in quadruplicate.

[2] = tested on: Sarc cells crossing HUVEC monolayer; test: Trans-endothelial migration of Sarc cells, xCELLigence RTCA; assay type: cell-based, human; settings: 10 nM, EBM-10% FBS, slopes in a 25–35 hr time frame
Experimental: Trans-endothelial migration assays were performed using the xCELLigence RTCA technology as described. Briefly, HUVECs (1 × 10^4 cells/well) suspended in growth medium, were seeded in E-plates and allowed to grow for ~25 hr, until they form a confluent monolayer, prior to seeding Sarc cells (1 × 10^4 cells/well) in growth medium plus/minus 10 nM RI-3. When HUVECs are challenged with crossing cells, there is a drop in electrical resistance that is monitored in real-time as cell index changes due to the rupture of the endothelial monolayer. The experiment was performed twice in quadruplicate.

[3] = tested on: ERK1/2(T202/Y204/T185/Y187); test: Phospho-kinase array, RBL-2H3/ETFR cells; assay type: cell-based, rat; settings: 10 nM fMLF plus 10 nM peptide, 10 min
Experimental: (§1) RBL-2H3/ETFR grown to semi-confluence, were exposed to DMEM alone, 10 nM fMLF with/without 10 nM RI-3 at 37 °C in humidified air with 5% CO2. At the indicated times, cells were lysed in RIPA buffer and cell lysate protein content was measured by a colorimetric assay. Western blot analysis of AKT phosphorylation was performed as previously described using anti-phospho-Akt (Ser473) (pAKT) Ab (Cell Signaling) and anti-Akt mAb (R&D System). The effects of fMLF with/without 10 nM RI-3 were analyzed at the level of global kinase phosphorylation, using the dot-blot Proteome Profiler^TM Array Human PhosphoKinase Array Kit (R&D Systems), according to manufacturer’s instructions. Briefly, 300 µg of protein were applied on each membrane and the signals were detected as described for Western blot. The pixel density of each spot was measured using NIH Image 1.62 software. The intensity of positive control spots was used to normalize results between the four membranes. The intensity for each spot was then averaged over the duplicate spots.

Fgr(Y412) = test: Phospho-kinase array, RBL-2H3/ETFR cells; assay type: cell-based, rat; settings: 10 nM fMLF plus 10 nM peptide, 10 min
Experimental: as §1

CREB(S133) = test: Phospho-kinase array, RBL-2H3/ETFR cells; assay type: cell-based, rat; settings: 10 nM fMLF plus 10 nM peptide, 10 min
Experimental: as §1

FAK(Y397) = test: Phospho-kinase array, RBL-2H3/ETFR cells; assay type: cell-based, rat; settings: 10 nM fMLF plus 10 nM peptide, 10 min
Experimental: as §1

Akt(S473) = test: Phospho-kinase array, RBL-2H3/ETFR cells; assay type: cell-based, rat; settings: 10 nM fMLF plus 10 nM peptide, 10 min
Experimental: as §1

p38α(T180/Y182) = test: Phospho-kinase array, RBL-2H3/ETFR cells; assay type: cell-based, rat; settings: 10 nM fMLF plus 10 nM peptide, 10 min
Experimental: as §1

HT1080 cells = test: HT1080 cell migration toward 10% FBS in Boyden chambers; assay type: cell-based, human; settings: 10 nM peptide plus 10% FBS, 4 hr, means of three independent experiments in triplicate
Experimental: Cell migration in Boyden chambers was carried out for 4 hr at 37 °C in humidified air with 5% CO2, as described. Briefly, cell suspension (1 × 10^5 viable cells/mL serum free medium) was seeded in each upper chamber. Lower chambers were filled with DMEM alone, DMEM containing RI peptides, 10 nM fMLF, or 10% FBS with/without RI peptides. The two compartments were separated by 8 μm pore size polycarbonate filters (Neuroprobe) coated with 2.5 µg/mL vitronectin (Corning). For the invasion assays, 8 μm pore size filters were coated with 50 μg/filter matrigel (BD Biosciences) as previously described[40] and cells (3 × 10^4 viable cells/well) were allowed to invade matrigel for 6 hr at 37 °C, 5% CO2. In all cases, at the end of the assay, cells on the lower filter surface were fixed with ethanol, stained with haematoxylin and 10 random fields/filter were counted at 200× magnification. Each experiment was performed three times in triplicate.

[4] = tested on: Akt (Ser473) phosphorylation; test: Akt phosphorylation by Western blot in RBL-2H3/ETFR cells; assay type: cell-based, rat; settings: 0 to 10 minutes
Experimental: as §1

“Ac-[dY][dR][Aib][dR]-NH2 (SMILES CC(=O)N[C@H](Cc1ccc(O)cc1)C(=O)N[C@H](CCCNC(=N)N)C(=O)NC(C)(C)C(=O)N[C@H](CCCNC(=N)N)C(N)=O) [RI-3]” was tested, and the “effect on agonist-dependent FPR1 internalization” value (FPR1) was “paucity of FPR1 internalization”, the “reduction of matrigel invasion (slope of cell index)” value [1] was 24% and the “reduction of the capability of Sarc cells to disrupt endothelial monolayers” value [2] was 24%. The “reduction in fMLF-dependent phosphorylation of ERK1/2(T202/Y204/T185/Y187)” value [3] was 25%, the “reduction in fMLF-dependent phosphorylation of Fgr(Y412)” value (Fgr(Y412)) was 43% and the “reduction in fMLF-dependent phosphorylation of CREB(S133)” value (CREB(S133)) was 42%. For the same substance, the “reduction in fMLF-dependent phosphorylation of FAK(Y397)” value (FAK(Y397)) was 30%, the “reduction in fMLF-dependent phosphorylation of Akt(S473)” value (Akt(S473)) was 22% and the “reduction in fMLF-dependent phosphorylation of p38α(T180/Y182)” value (p38α(T180/Y182)) was 21%. The “reduction of FBS-directed cell migration” value (HT1080 cells) was 57%, the “effect on fMLF-induced Akt phosphorylation” value ([4]; 10 nM fMLF with 10 nM peptide) was “consistently decreased” and the “effect of peptide alone on Akt phosphorylation” value ([4]; 10 nM, no fMLF) was “did not affect Akt phosphorylation”.
